Measurements published in ChEMBL document CHEMBL4507276 (2021).

Key:
[1] = molecular target: MAP kinase-activated protein kinase 2 (Homo sapiens) (UniProt P49137); conditions: Compound concentration 1000.0 nM
[2] = molecular target: GABA-A receptor; anion channel (Rattus norvegicus) (UniProt O09028+P15431+P18506+P18508+P19969+P20236+P23574+P23576+P28471+P28473+P30191+P62813+P63079+P63138+Q91ZM7+Q9ES14); conditions: Compound concentration 10.0 uM
[3] = molecular target: Tyrosine-protein kinase Lyn (Homo sapiens) (UniProt P07948); experiment: LYNAKINASE(H) Cerep selectivity data (BI); conditions: Compound concentration 20.0 uM
[4] = molecular target: cGMP-specific 3',5'-cyclic phosphodiesterase (Homo sapiens) (UniProt O76074); experiment: PDE5 Cerep selectivity data (BI); conditions: Compound concentration 20.0 uM
[5] = tested on: Epidermal growth factor receptor (Homo sapiens), P00533 [T790M]; experiment: EGFR T790M Invitrogen selectivity data (BI); conditions: Compound concentration 3.0 uM
[6] = molecular target: Casein kinase I isoform gamma-1 (Homo sapiens) (UniProt Q9HCP0); experiment: CSNK1G1 Invitrogen selectivity data (BI); conditions: Compound concentration 3.0 uM
[7] = molecular target: T1, G protein-coupled receptor kinase 3 (Homo sapiens) (UniProt P35626); experiment: ADRBK2 Invitrogen selectivity data (BI); conditions: Compound concentration 3.0 uM
T1 sequence (whole entry): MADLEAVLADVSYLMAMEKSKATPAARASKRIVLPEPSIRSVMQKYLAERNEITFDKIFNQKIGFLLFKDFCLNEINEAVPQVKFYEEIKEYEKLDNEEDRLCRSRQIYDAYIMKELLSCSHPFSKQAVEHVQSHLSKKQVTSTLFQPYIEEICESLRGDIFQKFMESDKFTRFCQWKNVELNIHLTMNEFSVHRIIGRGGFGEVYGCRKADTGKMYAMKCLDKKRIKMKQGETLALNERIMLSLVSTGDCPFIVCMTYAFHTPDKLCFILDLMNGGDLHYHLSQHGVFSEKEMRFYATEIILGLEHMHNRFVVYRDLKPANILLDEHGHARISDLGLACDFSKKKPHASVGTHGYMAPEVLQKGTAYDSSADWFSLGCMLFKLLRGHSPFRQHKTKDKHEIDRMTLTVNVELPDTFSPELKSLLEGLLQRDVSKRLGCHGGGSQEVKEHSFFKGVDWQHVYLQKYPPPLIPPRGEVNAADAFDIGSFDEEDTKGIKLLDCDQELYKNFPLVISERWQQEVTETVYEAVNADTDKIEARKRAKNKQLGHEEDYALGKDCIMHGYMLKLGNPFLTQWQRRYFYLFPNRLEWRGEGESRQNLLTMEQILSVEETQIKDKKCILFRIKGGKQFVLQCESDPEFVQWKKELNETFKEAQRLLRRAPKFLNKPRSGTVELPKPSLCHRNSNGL

[8] = molecular target: T2, Ephrin type-B receptor 4 (Homo sapiens) (UniProt P54760); experiment: EPHB4 Invitrogen selectivity data (BI); conditions: Compound concentration 3.0 uM
T2 sequence (whole entry): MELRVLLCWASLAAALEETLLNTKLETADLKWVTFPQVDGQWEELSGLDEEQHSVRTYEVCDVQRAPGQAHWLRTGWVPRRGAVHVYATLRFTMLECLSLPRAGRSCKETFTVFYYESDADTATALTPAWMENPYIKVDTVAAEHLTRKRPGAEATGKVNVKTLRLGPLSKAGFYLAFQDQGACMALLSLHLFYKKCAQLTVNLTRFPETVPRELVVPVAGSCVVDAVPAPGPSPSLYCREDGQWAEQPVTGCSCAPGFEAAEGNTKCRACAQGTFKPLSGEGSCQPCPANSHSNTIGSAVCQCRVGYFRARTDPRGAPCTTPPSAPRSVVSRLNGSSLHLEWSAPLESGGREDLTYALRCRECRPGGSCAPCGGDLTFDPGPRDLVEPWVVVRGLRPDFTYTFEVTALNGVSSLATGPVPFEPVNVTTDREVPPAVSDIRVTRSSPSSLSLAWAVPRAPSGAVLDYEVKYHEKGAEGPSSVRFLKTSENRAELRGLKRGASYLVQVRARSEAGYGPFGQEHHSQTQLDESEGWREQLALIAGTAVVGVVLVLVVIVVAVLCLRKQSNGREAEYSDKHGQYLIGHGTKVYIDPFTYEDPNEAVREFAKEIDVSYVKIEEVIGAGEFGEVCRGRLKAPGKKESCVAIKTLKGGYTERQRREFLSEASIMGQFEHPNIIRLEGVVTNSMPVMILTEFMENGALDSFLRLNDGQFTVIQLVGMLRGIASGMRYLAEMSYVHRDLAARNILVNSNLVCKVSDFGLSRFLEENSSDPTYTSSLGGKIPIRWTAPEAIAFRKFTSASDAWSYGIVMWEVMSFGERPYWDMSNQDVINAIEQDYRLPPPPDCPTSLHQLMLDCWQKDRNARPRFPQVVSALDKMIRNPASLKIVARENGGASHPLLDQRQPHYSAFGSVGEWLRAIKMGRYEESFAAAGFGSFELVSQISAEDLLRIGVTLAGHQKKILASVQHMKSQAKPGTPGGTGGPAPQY

[9] = molecular target: T3, Serine/threonine-protein kinase DCLK2 (Homo sapiens) (UniProt Q8N568); experiment: DCAMKL2 Invitrogen selectivity data (BI); conditions: Compound concentration 3.0 uM
T3 sequence (whole entry): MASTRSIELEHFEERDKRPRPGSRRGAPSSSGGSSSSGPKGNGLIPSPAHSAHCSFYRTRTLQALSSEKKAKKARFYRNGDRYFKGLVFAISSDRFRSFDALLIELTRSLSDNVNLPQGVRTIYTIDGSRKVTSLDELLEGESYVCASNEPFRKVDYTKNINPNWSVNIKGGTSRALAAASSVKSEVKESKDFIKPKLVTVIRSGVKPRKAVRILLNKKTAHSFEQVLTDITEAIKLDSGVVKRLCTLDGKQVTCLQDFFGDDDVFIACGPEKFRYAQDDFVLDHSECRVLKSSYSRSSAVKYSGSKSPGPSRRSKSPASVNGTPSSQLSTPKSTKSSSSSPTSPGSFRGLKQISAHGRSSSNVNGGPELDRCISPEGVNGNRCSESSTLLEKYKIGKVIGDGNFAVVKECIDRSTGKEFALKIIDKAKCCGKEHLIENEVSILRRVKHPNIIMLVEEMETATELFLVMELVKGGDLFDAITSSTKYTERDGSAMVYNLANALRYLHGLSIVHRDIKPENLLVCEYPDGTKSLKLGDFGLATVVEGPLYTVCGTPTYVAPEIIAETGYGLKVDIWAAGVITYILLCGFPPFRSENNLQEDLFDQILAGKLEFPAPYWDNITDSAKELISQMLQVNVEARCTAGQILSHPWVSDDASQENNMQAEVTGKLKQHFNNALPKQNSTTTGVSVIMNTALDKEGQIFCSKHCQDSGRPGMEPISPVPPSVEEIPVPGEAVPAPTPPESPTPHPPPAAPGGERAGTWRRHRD

[10] = molecular target: Angiopoietin-1 receptor (Homo sapiens) (UniProt Q02763); experiment: TEK Invitrogen selectivity data (BI); conditions: Compound concentration 3.0 uM
[11] = molecular target: Neuropeptide Y receptor type 1 (Homo sapiens) (UniProt P25929); experiment: Y1/HUM Cerep selectivity data (BI); conditions: filed as antagonist, Compound concentration 20.0 uM
Chain of Neuropeptide Y receptor type 1 (Homo sapiens) (P25929 whole entry): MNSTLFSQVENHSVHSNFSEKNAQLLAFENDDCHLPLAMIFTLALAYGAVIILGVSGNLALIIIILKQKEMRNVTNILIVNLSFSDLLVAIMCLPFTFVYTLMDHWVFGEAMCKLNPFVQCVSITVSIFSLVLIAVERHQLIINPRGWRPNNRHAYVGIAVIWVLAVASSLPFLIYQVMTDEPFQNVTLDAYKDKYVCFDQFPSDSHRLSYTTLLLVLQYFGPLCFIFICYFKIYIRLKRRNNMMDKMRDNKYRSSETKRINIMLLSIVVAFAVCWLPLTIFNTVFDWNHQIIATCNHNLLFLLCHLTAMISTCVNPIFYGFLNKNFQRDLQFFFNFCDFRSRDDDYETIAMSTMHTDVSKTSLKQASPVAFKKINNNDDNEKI

Chain of Casein kinase I isoform gamma-1 (Homo sapiens) (Q9HCP0 whole entry, looked up, canonical isoform): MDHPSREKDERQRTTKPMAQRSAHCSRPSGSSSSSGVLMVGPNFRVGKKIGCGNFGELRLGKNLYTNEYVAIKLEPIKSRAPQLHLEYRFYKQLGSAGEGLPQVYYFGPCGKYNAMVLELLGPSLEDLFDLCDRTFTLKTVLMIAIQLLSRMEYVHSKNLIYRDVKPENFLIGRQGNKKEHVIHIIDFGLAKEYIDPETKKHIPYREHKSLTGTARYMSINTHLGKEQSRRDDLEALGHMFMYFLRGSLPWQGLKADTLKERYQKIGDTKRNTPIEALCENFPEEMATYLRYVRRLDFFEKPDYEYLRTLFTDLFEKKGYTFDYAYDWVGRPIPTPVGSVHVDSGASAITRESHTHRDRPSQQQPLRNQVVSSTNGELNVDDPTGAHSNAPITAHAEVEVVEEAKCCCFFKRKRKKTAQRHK
Chain of MAP kinase-activated protein kinase 2 (Homo sapiens) (P49137 whole entry, looked up): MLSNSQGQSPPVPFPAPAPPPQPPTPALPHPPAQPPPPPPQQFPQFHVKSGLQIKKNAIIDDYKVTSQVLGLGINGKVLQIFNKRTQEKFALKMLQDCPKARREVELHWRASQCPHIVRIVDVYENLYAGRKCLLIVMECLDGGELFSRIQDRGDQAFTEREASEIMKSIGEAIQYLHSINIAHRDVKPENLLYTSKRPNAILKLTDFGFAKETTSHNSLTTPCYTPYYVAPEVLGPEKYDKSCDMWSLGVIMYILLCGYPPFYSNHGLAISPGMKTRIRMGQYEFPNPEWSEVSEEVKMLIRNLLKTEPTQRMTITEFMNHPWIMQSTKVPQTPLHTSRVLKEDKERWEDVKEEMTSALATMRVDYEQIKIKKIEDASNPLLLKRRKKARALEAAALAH
Chain of Tyrosine-protein kinase Lyn (Homo sapiens) (P07948 2-512 limits assumed): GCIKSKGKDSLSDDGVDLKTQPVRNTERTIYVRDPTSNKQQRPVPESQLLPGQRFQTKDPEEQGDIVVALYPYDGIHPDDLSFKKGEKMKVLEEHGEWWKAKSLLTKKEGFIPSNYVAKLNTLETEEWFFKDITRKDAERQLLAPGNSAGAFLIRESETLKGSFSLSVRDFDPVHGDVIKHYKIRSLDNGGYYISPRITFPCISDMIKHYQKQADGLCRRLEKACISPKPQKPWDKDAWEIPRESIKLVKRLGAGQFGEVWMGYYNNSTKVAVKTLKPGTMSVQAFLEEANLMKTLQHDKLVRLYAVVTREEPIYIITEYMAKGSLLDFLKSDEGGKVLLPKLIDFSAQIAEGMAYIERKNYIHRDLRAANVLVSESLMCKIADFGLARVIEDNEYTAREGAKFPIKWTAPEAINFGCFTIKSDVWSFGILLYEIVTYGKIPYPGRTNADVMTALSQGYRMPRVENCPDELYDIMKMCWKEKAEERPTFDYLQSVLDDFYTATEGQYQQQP
Chain of Angiopoietin-1 receptor (Homo sapiens) (Q02763 whole entry): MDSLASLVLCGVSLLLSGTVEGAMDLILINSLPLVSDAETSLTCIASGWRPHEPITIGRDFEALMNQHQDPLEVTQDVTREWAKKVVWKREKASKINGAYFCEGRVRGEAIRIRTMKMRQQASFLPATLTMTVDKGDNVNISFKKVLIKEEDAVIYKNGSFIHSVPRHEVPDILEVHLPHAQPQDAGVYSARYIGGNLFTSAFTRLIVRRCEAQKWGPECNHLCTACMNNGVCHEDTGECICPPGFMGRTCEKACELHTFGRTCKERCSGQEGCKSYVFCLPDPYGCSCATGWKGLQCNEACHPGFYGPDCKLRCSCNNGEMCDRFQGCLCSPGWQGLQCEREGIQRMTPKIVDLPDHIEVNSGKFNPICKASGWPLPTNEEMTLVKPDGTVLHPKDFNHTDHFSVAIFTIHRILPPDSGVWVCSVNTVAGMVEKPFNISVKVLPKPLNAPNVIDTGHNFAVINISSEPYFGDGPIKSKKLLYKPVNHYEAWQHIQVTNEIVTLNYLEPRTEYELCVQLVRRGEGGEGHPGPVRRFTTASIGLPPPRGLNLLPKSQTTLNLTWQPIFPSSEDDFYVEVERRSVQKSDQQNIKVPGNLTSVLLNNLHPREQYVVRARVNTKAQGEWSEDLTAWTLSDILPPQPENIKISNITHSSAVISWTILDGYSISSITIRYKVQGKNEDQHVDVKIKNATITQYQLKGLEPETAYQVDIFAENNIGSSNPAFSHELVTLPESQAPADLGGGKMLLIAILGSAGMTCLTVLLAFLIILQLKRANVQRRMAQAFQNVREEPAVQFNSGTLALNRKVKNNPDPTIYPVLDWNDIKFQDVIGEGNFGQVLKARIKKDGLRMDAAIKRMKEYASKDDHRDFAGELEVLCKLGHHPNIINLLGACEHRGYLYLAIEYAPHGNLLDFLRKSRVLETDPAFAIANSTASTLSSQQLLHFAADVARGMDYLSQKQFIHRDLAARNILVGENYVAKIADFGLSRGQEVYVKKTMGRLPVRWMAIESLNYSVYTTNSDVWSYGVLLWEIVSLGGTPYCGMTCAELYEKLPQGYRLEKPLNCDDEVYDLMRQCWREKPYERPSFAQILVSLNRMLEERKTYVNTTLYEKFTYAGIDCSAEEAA

CN(C)C(=O)Cn1cc(-c2nc(C3(c4ccc(-c5cnc(N)nc5)cc4)CC3)no2)cn1 [BI 0153]
inactive: residual activity [1] 99% | inhibition [2] 6.54%

CN(C)C(=O)Cn1cc(-c2nc([C@@](C)(c3ccc(-c4cnc(N)nc4)cc3)C3CC3)no2)cn1 [BI 665915]
inactive: residual activity [3] 87% | residual activity [4] 89% | residual activity [5] 104% | residual activity [6] 97.5% | residual activity [7] 100% | residual activity [8] 101% | residual activity [9] 97% | residual activity [10] 97% | residual activity [11] 104%
